Experimental data taken from patent publication US8575376B2, “Steroide anionic compounds, method of their production, usage and pharmaceutical preparation involving them” (Ustav Organicke Chemie A Biochemie Akademie Ved Ceske …, priority 2009, dated 2013).

What was measured:
rats [1] = experiment: Active allothetic place avoidance (AAPA) task, compound applied alone; type: in vivo, rat
Procedure: The effect of compound from Example 9 on cognitive behaviors and locomotion was assessed using active allothetic place avoidance (AAPA) task, which requires intact hippocampi and ability of animals to navigate in space using distinct reference frames (spatial navigation and “cognitive coordination”) (Wesierska et al., 2005) and it also allows measuring changes in the accompanying locomotor activity. AAPA task training involves animals trained to move over a slowly rotating uniform circular arena, on which a prohibited sector is defined, entering which is punished by a mild footshock. A shock sector and its position can be determined solely by its relationship to distal orienting cues in the room (Stuchlik et al., 2008).
This task is highly dependent upon hippocampal formation, with unilateral reversible ablation of this structure with TTX leading to avoidance deficit (Cimadevilla et al., 2001). Animals solving this task should walk in a direction opposite to arena rotation; otherwise it would be repeatedly brought to a fixed sector by arena rotation. We conducted 4 acquisition session of AAPA task, during which the sector location was always reinforced and remained stable throughout the training. Each session lasted 20 min.
Control animals obtained saline intraperitoneally (i.p.) whilst experimental groups received subcutaneous (s.c.) injections of the compound from Example 9 at doses 1 mg/kg and 10 mg/kg (dissolved in cyclodextrin). Solution of compound from Example 9 (1 mg/2 ml or 10 mg/2 ml in cyclodextrin) was applied s.c. at a volume 2 ml/kg of body weight (b.w.). Intraperitonal application of dizocilpine (a non-competitive NMDA receptor antagonist; showing significant neuroprotective activity but exerting cognition-disturbing and psychotomimetic effects) was used as a positive control. Dizocilpine was applied at doses 0.1 mg/kg, 0.2 mg/kg and 0.3 mg/kg. It is worth noting that dizocilpine (albeit its experimental neuroprotective activity) is often used to model schizophrenia-like behaviors in […] and it has been repeatedly shown to exert a dose-dependent learning deficit and hyperlocomotion.

rats [2] = experiment: Open-field locomotion in MK-801 animal model of schizophrenia; type: in vivo, rat; conditions: substance alone; Example 9 0.1 and 1 mg/kg, MK-801 0.1 mg/kg
Procedure: The effect of the compound from example 9 in doses of 0.1 mg/kg and 1 mg/kg on locomotor activity in open field test was evaluated. Locomotor activity expressed as a total distance travelled during 30 min exploration of a box (68×68×30 cm) located in a sound proof room was measured using a video tracking system for automation of the behavioural experiments (Noldus, EthoVision, Version 2.1.).

C6 glioma cell line = experiment: Growth of glioma cells in culture; type: cell-based; conditions: 0.1 and 1 μg in 50 ml β-cyclodextrine solution, 3 div + 6 days
Procedure: The effect of compound from the example 9 (the model molecule) on growth of glioma cells was studied on C6 glioma cell line (ATTC, Rockville). The model molecule was tested at doses of 0.1 and 1 μg dissolved in 50 ml of β-cyclodextrine solution. Parallel control groups were administered by cholesterol at doses of 0.1 and 1 μg dissolved in 50 ml of β-cyclodextrine solution. The last group included in the experiment was left intact without any application.
The cells were cultivated in vitro for 3 days (div). Afterwards tested molecule was applied and the cell culture was studied for additional 6 days. Olympus microscope with phase contrast and 200× magnification was used for the cell monitoring.

[3] = target: T1, recombinant NR1/NR2B receptors (Rattus norvegicus, UniProt P35439+Q00960); experiment: Patch-clamp, inhibition of glutamate responses of recombinant NMDA receptors in transfected HEK293 cells; type: cell-based; conditions: for IC50: calculated from relative inhibition with Hill's coefficient 1.2; for Relative inhibition effect (%): responses to 1 mM glutamate, -60 mV, HEK293 NR1-1a/NR2B, steroid 50, 100 or 200 μM
T1 construct: expressed in transfected cells; host or cells: HEK293 cells (ATCC CRL1573)
T1 sequence (Q00960 27-1482, other chains not shown): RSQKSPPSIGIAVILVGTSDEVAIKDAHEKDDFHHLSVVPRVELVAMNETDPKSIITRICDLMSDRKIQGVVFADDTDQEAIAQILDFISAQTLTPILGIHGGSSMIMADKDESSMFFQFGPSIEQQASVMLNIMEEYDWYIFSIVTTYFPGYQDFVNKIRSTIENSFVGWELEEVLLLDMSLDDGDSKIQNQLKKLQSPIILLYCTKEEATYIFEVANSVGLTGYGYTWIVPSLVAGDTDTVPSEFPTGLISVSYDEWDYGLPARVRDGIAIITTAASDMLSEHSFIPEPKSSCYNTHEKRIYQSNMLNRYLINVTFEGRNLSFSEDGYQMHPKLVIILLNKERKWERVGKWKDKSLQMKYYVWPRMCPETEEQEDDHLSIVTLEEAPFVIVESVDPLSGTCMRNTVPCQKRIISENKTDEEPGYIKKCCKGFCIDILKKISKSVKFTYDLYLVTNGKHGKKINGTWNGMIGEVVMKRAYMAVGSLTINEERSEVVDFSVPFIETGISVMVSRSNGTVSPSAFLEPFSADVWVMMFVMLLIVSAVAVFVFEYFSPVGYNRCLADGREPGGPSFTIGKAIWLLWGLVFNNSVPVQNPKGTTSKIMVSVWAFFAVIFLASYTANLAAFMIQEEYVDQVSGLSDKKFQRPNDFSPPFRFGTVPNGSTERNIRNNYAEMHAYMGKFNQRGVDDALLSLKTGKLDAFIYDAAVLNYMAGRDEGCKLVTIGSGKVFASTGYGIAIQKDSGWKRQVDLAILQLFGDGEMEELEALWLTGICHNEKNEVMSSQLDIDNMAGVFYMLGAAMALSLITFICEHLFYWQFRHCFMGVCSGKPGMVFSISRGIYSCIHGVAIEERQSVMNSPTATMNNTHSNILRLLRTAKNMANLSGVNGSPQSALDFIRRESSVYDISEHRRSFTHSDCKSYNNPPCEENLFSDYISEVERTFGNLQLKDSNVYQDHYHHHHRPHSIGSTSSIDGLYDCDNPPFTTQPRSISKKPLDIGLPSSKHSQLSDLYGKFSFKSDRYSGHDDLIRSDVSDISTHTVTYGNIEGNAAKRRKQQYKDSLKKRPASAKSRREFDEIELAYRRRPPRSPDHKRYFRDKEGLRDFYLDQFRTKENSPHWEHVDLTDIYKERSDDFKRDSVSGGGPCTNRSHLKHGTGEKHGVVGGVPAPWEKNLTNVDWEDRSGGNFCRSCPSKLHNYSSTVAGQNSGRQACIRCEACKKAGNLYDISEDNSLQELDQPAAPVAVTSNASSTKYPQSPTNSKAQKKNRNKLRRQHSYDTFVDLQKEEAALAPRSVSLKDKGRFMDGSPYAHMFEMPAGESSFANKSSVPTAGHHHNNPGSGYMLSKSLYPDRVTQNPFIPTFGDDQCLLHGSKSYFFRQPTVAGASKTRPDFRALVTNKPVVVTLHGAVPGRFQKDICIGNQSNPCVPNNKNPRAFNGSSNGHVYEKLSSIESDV

[4] = target: T1, recombinant NR1/NR2B receptors; conditions: 100 μM pregnanolone sulphate, recombinant NR1/NR2B receptors (Petrovic et al., 2005); listed as preganolone sulphate; cited from earlier work
[5] = system: NMDA receptor on hippocampal neurons; conditions: 100 μM pregnanolone sulphate, responses to 100 μM NMDA, hippocampal neurons (Petrovic et al., 2005); cited from earlier work
[6] = Example 9 1 and 10 mg/kg s.c., dizocilpine 0.1-0.3 mg/kg i.p.

Row | Compound | IC50 [3] | Relative inhibition effect (%) [3] | other results
1 | C[C@]12N[C@H](Cc3ccccc31)c1ccccc12 [dizocilpine] | – | – | maximum time avoided in AAPA (rats [1]; [6]): significantly decreased rats' performance; number of entrances into shock sector in AAPA (rats [1]; [6]): dose-dependently disrupted this parameter; total distance traveled in AAPA (locomotor activity) (rats [1]; Example 9 1 and 10 mg/kg s.c., dizocilpine 0.1-0.3 mg/kg i.p., 20-min sessions): dose-dependently and consistently stimulated the locomotor activity; locomotor activity in AAPA (rats [1]; dizocilpine 0.1 mg/kg i.p.): hyperlocomotion was not observed; locomotor activity in AAPA (rats [1]; dizocilpine 0.2 mg/kg i.p.): marked locomotor hyperactivity; locomotor activity in AAPA (rats [1]; dizocilpine 0.3 mg/kg i.p.): even more dramatic hyperlocomotion; locomotion in open field (total distance, 30 min) (rats [2]): hyperlocomotion state induced by MK-801
2 | CC(C)CCC[C@@H](C)[C@H]1CC[C@H]2[C@@H]3CC=C4C[C@@H](O)CC[C@]4(C)[C@H]3CC[C@]12C [cholesterol, reference compound] | – | – | effect on growth of glioma cells (C6 glioma cell line): slightly apparent
3 | CC(=O)[C@H]1CC[C@H]2[C@@H]3CC[C@@H]4C[C@H](OC(=O)CCCCCC(=O)O)CC[C@]4(C)[C@H]3CC[C@]12C [Example 14, 20-Oxo-5β-pregnan-3α-yl 6-carboxyhexanoate] | 135 µM | 61.5 ± 10.6% | –
4 | CC(=O)[C@H]1CC[C@H]2[C@@H]3CC[C@@H]4C[C@H](OC(=O)[C@@H](N)CC(=O)O)CC[C@]4(C)[C@H]3CC[C@]12C [Example 3, 20-Oxo-5β-pregnan-3α-yl L-aspartyl 1-ester] | 51 µM | 83.6 ± 2.7% | –
5 | CC(=O)[C@H]1CC[C@H]2[C@@H]3CC[C@@H]4C[C@H](OC(=O)CCCCC(=O)O)CC[C@]4(C)[C@H]3CC[C@]12C [Example 13, 20-Oxo-5β-pregnan-3α-yl-adipyl 1-ester] | 40 µM | 87.3 ± 8.9% | –
6 | COC(=O)CN[C@@H]1CC[C@@]2(C)[C@H](CC[C@@H]3[C@@H]2CC[C@]2(C)[C@@H](C(C)=O)CC[C@@H]32)C1.Cl [Example 26, N-(20-Oxo-5β-pregnan-3α-yl) glycine methylester hydrochloride] | 250 µM | 43.4 ± 3.4% | –
7 | CC(=O)[C@H]1CC[C@H]2[C@@H]3CC[C@@H]4C[C@H](OC(=O)C(C)CC(=O)O)CC[C@]4(C)[C@H]3CC[C@]12C (stereo partly drawn) [Example 19, 20-Oxo-5β-pregnan-3α-yl 3-carboxy-ξ-methyl-propanoate] | 30 µM | 80.9 ± 3.6% | –
8 | CC(=O)[C@H]1CC[C@H]2[C@@H]3CC[C@@H]4C[C@H](OC(=O)/C=C\C(=O)O)CC[C@]4(C)[C@H]3CC[C@]12C [Example 17, 20-Oxo-5β-pregnan-3α-yl (Z)-3-carboxyprop-2-enoate] | 14 µM | 81.6 ± 2.7% | –
9 | 20-oxo-5beta-pregnan-3alpha-yl sulfate [Pregnanolone sulphate] | 55 µM | – | mean inhibition effect [4]: 67.2±8.2%; mean inhibition effect [5]: 71.3±5.0%
10 | CC(=O)[C@H]1CC[C@H]2[C@@H]3CC[C@@H]4C[C@H](OC(=O)CCCCCCC(=O)O)CC[C@]4(C)[C@H]3CC[C@]12C [Example 15, 20-Oxo-5β-pregnan-3α-yl 7-carboxyheptanoate] | 175 µM | 54.0 ± 10.8% | –
